Square brackets hold non-standard residues; d marks the D form. Peptide text beside a SMILES is read from it. Pen = CC(C)(S)[C@H](N)C(=O)O; Mpa = O=C(O)CCS
Columns and labels:
Homo sapiens = species: Homo sapiens; test: Functional inhibition of the GPIIb-IIIa receptor was reflected as its ability to antagonize ADP induced platelet aggregation in human platelet-rich plasma; assay type: organism-based
[1] = target: Integrin alpha-IIb/beta-3 (Homo sapiens, UniProt P05106+P08514); test: Inhibition of platelet glycoprotein alpha IIb beta-3 integrin in ELISA
Integrin alpha-IIb/beta-3, sequence (P05106 27-788 limits assumed): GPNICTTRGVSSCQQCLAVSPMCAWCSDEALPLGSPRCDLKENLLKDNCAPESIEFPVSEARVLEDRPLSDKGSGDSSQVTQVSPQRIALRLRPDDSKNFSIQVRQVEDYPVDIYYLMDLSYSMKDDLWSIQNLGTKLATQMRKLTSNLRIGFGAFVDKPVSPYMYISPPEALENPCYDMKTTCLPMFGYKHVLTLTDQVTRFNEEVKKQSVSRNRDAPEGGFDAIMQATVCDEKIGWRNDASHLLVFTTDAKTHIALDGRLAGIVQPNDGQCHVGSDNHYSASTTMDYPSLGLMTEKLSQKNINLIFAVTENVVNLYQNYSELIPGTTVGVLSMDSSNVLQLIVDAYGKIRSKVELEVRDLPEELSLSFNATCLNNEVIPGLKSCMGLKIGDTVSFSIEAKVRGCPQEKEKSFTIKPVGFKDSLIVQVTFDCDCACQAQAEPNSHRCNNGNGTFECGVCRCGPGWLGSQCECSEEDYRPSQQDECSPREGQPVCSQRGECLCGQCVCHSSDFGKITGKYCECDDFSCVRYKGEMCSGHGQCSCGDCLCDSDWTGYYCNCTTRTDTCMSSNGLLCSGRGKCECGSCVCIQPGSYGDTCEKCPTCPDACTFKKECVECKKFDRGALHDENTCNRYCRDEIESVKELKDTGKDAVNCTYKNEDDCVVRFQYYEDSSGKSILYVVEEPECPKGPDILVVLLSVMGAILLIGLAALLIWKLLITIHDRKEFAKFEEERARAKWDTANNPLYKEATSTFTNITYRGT
Integrin alpha-IIb/beta-3, sequence (P08514 32-887 limits assumed): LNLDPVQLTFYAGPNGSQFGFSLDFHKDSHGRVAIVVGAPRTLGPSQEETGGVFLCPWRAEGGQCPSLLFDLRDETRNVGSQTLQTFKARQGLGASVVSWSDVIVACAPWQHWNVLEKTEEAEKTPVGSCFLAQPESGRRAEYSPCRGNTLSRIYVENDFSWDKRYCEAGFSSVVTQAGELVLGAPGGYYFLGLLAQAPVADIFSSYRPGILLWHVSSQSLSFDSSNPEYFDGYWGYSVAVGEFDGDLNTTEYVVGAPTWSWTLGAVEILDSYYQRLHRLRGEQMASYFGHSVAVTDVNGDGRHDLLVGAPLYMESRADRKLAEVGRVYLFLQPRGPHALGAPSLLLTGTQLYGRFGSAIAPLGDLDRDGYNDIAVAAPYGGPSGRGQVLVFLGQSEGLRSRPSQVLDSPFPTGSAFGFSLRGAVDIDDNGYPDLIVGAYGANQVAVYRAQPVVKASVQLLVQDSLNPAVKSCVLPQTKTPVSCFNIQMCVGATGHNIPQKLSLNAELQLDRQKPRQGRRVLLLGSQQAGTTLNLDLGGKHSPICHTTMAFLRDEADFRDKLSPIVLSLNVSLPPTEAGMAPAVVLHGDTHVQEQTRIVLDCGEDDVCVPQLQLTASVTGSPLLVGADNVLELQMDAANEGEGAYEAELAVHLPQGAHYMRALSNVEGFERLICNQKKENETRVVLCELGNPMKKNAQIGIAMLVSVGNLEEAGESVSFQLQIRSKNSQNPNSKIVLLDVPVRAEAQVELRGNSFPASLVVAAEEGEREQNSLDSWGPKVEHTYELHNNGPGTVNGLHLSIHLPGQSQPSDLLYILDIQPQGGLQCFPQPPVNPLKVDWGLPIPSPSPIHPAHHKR
Integrin alpha-IIb/beta-3, sequence (P08514 891-1039 limits assumed): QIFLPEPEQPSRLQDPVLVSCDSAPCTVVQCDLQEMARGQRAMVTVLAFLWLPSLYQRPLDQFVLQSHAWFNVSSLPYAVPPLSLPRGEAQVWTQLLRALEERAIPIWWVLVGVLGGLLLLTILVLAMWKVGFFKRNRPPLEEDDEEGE

With N=C(N)c1ccc2c(C(=O)NCCCCCCC(=O)O)c[nH]c2c1 the IC50 (Homo sapiens) was 650 nM and the IC50 [1] was 100 nM.
In the case of N=C(N)c1ccc2cc(C(=O)NCCCCCCC(=O)O)[nH]c2c1, the IC50 (Homo sapiens) is reported as 1300 nM and the IC50 [1] is reported as 150 nM.
N=C(N)c1ccc(NCC(=O)NCCCCCCC(=O)O)cc1 showed an IC50 (Homo sapiens) of 67000 nM.
N=C(N)c1ccc2[nH]c(C(=O)NCCCCCCCC(=O)O)cc2c1 gave an IC50 (Homo sapiens) greater than 100000 nM.
N=C(N)c1ccc2[nH]c(C(=O)NCCCCCCC(=O)O)cc2c1 showed an IC50 (Homo sapiens) of 2700 nM.
For N=C(N)c1ccc2[nH]c(C(=O)NCCCCCC(=O)O)cc2c1, the IC50 (Homo sapiens) was greater than 100000 nM and the IC50 [1] was 30000 nM.
N=C(N)c1cccc(NCC(=O)NCCCCCCC(=O)O)c1 showed an IC50 (Homo sapiens) greater than 100000 nM and an IC50 [1] of 64000 nM.
With N=C(N)c1ccc2[nH]cc(C(=O)NCCCCCCC(=O)O)c2c1 the IC50 (Homo sapiens) was greater than 100000 nM and the IC50 [1] was greater than 100000 nM.
N=C(N)c1ccc2[nH]cc(C(=O)NCCCCCCCC(=O)O)c2c1 showed an IC50 (Homo sapiens) greater than 100000 nM and an IC50 [1] greater than 100000 nM.
For CC(C)(S)[C@H](NC(=O)[C@H](CCCN=C(N)N)NC(=O)[C@H](Cc1c[nH]c2ccccc12)NC(=O)[C@H](CC(=O)O)NC(=O)CNC(=O)[C@H](CCCN=C(N)N)NC(=O)CCS)C(N)=O ([Mpa]RGDWR[Pen]-NH2), the IC50 (Homo sapiens) was 280 nM and the IC50 [1] was 120 nM.
